Results reported in EP0171968A1, “Use of a phospholipid derivative” (Takeda Chemical Industries, Ltd., priority 1984, dated 1986).
Values after ≈ are worked out from the molar mass of the structure shown.

Tests used:
[1] = test system: rat platelet; assay: Platelet aggregation; format: cell-based; conditions: concentration of 3 x 10-^5 M
Description: Neither l-0-octadecyl-2-0-(morpholinocarbonyl)glycero-3-phosphocholine nor 3-octadecyloxy-2-(morpholino-carbonyloxy)propyl 2-thiazolioethyl phosphate at a concentration of 3 x 10-^5 M caused platelet aggregation against rat platelet.

[2] = test system: S 180 cells; assay: Activity toward mice bearing the Sarcoma 180 tumor (subcutaneous transplant, tumor weight); format: in vivo, ICR mice; conditions: 25 mg/kg injected into the tumor every four days from the 7th day, four times; for Proliferation inhibition ratio (%): 24th day, against control group; for Weight of tumor: measured on the 24th day
Experimental: ICR mice (male, 8-week-old, a group consisting of 5 mice), as divided into two groups, were transplanted subcutaneously with 1 x 10^6 S 180 cells per mouse, respectively. One group was treated with the drug by injection into the tumor every four days commencing with the 7th day after the transplantation, four times in total. On the 24th day, the average tumor weight for the drug-treated group was measured, and the ratio (the tumor proliferation inhibition ratio) against that for the control group (not treated with the drug) was calculated.

[3] = test system: Meth A cells; assay: Necrotic effect against the Meth A tumor tissue; format: in vivo, Balb/c mice; conditions: given intravenously, 7 days after transplantation, observed after 24 hours
[4] = test system: S 180 cells; assay: Antitumor effect against mice bearing S 180 tumor (intraperitoneal inoculation, survival); format: in vivo, ICR mice; conditions: 0.3 mg/mouse once a day, three times in total; for T/C (%) (life-span prolongation ratio against the control group): control group average survival 12.2 days; for Number of mice surviving for 50 days: group of five ICR mice inoculated intraperitoneally with 1 x 10^5 S 180 cells
Experimental: ICR mice (a group consisting of five mice) were inoculated intraperitoneally with 1 x 10^5 S 180 cells per mouse, and then'given 0.3 mg/mouse of l-O-octadecyl-2-0-(morpholinocarbonyl)glycero-3-phosphocholine (Compound No. 1) dissolved in physiological saline once a day, three times in total, on the day of the inoculation and on the next day and the second day after the inoculation. The average of the survival days for the control group (consisting of 5 mice) was 12.2 days, whereas the number of surviving' mice in the drug-treated group on the 50th day and the life-span prolongation ratio (T/C) against the control group, are shown in Table 1.
In a similar manner, a test was carried out with 1-O-octadecyl-2-O-methylglycero-3-phosphocholine used as a control drug (A), with the results being shown below.

[5] = test system: human myelocytic leukemia cells HL-60; assay: Growth inhibiting effect and differentiation inducing activity on HL-60 (method of R. Gallo et al.); format: cell-based; conditions: HL-60 cells
Experimental: According to the method of R. Gallo et al. described in Blood 54 (3), 713 (1979), the growth inhibiting effect (IG effect)and differentiation inducing activity of 1-0-octadecyl-2-O-(morpholinocarbonyl)glycero-3-phosphocholine against human myelocytic leukemia cells HL-60 were assayed.

SMILES	caused platelet aggregation against rat platelet [1]	Proliferation inhibition ratio (%) [2] [%]	Weight of tumor [2] [g]	T/C (%) (life-span prolongation ratio against the control group) [4]	Number of mice surviving for 50 days [4]	other results
CCCCCCCCCCCCCCCCCCOCC(COP(=O)([O-])OCC[n+]1ccsc1)OC(=O)N1CCOCC1 (centres unmarked) [Drug 3, 3-Octadecyloxy-2-(morpholinocarbonyloxy)propyl 2-thiazolioethyl phosphate]	Neither	73.9	0.39	–	–	–
CCCCCCCCCCCCCCCCCCOCC(COP(=O)([O-])OCC[N+](C)(C)C)OC(=O)N1CCCC1 (centres unmarked) [1-O-octadecyl-2-O-(pyrrolidinocarbonyl)glycero-3-phospho-choline]	–	–	–	–	–	change of the tumor tissue (necrosis) ([3]; 25 mg/kg): necrosis through bleeding
CCCCCCCCCCCCCCCCCCOCC(COP(=O)([O-])OCC[N+](C)(C)C)OC(=O)N1CCCCC1 (centres unmarked) [Drug 2, 1-O-Octadecyl-2-O-(piperidinocarbonyl)glycero-3-phosphocholine]	–	52.4	0.71	–	–	–
CCCCCCCCCCCCCCCCCCOCC(COP(=O)([O-])OCC[N+](C)(C)C)OC(=O)N1CCOCC1 (stereo not drawn) [Compound 1, l-O-octadecyl-2-0-(morpholinocarbonyl)glycero-3-phosphocholine]	Neither	–	–	>336	2	change of the tumor tissue (necrosis) ([3]; 1.25 mg/kg): necrosis through bleeding; differentiation inducing activity ([5]; concentration of 1-2 ug/ml): mild differentiation inducing activity; IC50 ([5]; Homo sapiens, read-out: IG effect on HL-60 (GD50)): 0.6 µg/mL (≈ 0.963 µM)
CCCCCCCCCCCCCCCCCCOCC(COP(=O)([O-])OCC[N+](C)(C)C)OC (centres unmarked) [Control drug A, 1-O-octadecyl-2-O-methylglycero-3-phosphocholine, reference compound]	–	–	–	162	0	–
